Data published in patent US10307411B2, “Use of cotinine in treating or preventing neurogenesis deficits and enhancing neurogenesis” (Department of Veterans Affairs, priority 2014, dated 2019).

How the values were obtained:
[1] = Porsolt's forced swim test, depressive-like behavior in rats subjected to CMF chemotherapy; format: in vivo, Wistar female rats; conditions: cotinine 5 mg/kg oral
Protocol: Wistar female rats (2-4 months of age, 200-300 g) (n=10/group) were obtained from Harlan laboratories. Rats were housed in pairs, kept at 12 h light/12 h dark cycle and maintained in an air-conditioned room at a temperature of 21±1° C. and relative humidity of 60±10%. Food and water were available ad libitum. All rats were acclimated to the Veterinary Medical Unit for 1 week and handled daily. Weight was recorded every 2 days to assess for dehydration induced by the chemotherapy regime. […]
This task was chosen to determine the effect of cotinine on depressive-like behavior is one of the more broadly used to assess potential antidepressant effects of drugs (Porsolt R D, Bertin A, Jalfre M (1977) Behavioral despair in mice: a primary screening test for antidepressants. Arch Int Pharmacodyn Ther 229(2):327-336; Castagne V, Moser P, Roux S, Porsolt R D (2010) Rodent models of depression: forced swim and tail suspension behavioral despair tests in rats and mice. Curr Protoc Neurosci 49:5.8.1-5.8.14). […] The freezing behavior, during 6-min trials, was recorded on video and scored by investigators blinded to the treatment arms. The immobility (freezing) time was recorded during a 6-min forced swim (FS) trial. […] The time in seconds (sec) spent by the mice immobile was scored by two investigators blind to the mice's treatments. […]

[2] = tested on: VEGF; assay: Western blot of VEGF in hippocampus of mice subjected to repetitive forced swim stress; format: in vivo
Protocol: Mice pretreated with 5 mg/kg of cotinine (Cot 5) or vehicle (Veh) were exposed to repetitive 6-min forced swim (FS) daily for 6 days (a) to under continuous treatment. Following testing, mice were euthanized and the levels of VEGF and β-tubulin in the hippocampus were analyzed by Western blot. The plots represent VEGF immunoreactivity (IR) values in the hippocampus of mice. […] Mice pretreated with 5 mg/kg of cotinine (Cot 5) or vehicle (Veh) were exposed to repetitive 6-min forced swim (FS) daily for 6 days (a) to under continuous treatment or controls, not subjected to the forced swim (NES). Following resting, mice were euthanized and the levels of VEGF and β-tubulin in the hippocampus were analyzed by Western blot. The plots represent VEGF immunoreactivity (IR) values in the hippocampus of mice. […] The Western blot analysis investigated the expression of VEGF (FS mice: n=8-1O/group; NES mice: n=4-5/group). […] Brain tissues were then disrupted by sonication in cold lyses buffer (Cell Signaling Technology, Danver, Mass., USA) containing a complete protease inhibitor cocktail (Roche Molecular Biochemicals). After sonication, brain extracts were incubated on ice for 30 min and centrifuged at 20,000×g for 30 min at 4° C. Protein concentrations of supernatants were measured using the Bio-Rad protein assay (Bio-Rad, Hercules, Calif., USA). Equal amounts of protein were separated by gradient (4-20%), SOS-PAGE, then transferred to nitrocellulose membranes (BA83 0.2 μM; Bio-Rad). The membranes were blocked in TBS with 0.1% Tween 20 (TBST) containing 5% dry skim milk for 1 h. Membranes were incubated with primary antibodies in TBST overnight at 4° C. and with secondary antibodies for 1 h at room temperature (RT) in a blocking buffer. […] Images were acquired using an Odyssey Infrared Imaging System (Ll-COR Biosciences) and analyzed using the NIH Image J software. To analyze the group and treatment effects, differences between group means in the behavioral analyses were assessed using two-way analysis of variance (ANOVA) and post hoc Tukey test. […]

[3] = tested on: Chinese hamster ovary; conditions: 0-1000 μg/ml; cited from earlier work

CN1C(=O)CC[C@H]1c1cccnc1 [cotinine, (5S)-1-methyl-5-(3-pyridyl) pyrrolidin-2-one]
depressive-like behavior (immobility), chemotherapy-treated vs chemotherapy and cotinine-treated ([1]; CMF-treated rats, p<0.01): significant reduction | depressive-like behavior (immobility), vehicle-treated vs cotinine-treated ([1]; rats without chemotherapy, p<0.001): significant reduction | VEGF protein expression in the hippocampus vs NES mice ([2]; FS mice, cotinine 5 mg/kg, compared with non-stressed mice): not significantly different | VEGF protein expression in the hippocampus vs vehicle-treated FS mice ([2]; FS mice, cotinine 5 mg/kg, normalized to β-tubulin): significantly higher levels of VEGF expression | VEGF protein expression in the absence of stress ([2]; non-stressed mice, cotinine vs vehicle, t=0.2910, p=0.7795): no changes in VEGF expression | genotoxic effects, sister chromatid exchange (SCE) [3]: no genotoxic effects
